Literature values in patent publication US9730899B2, “Controlled release pharmaceutical composition with resistance against the influence of ethanol employing a coating comprising neutral vinyl polymers and excipients” (Evonik Roehm GmbH, priority 2009, dated 2017).
Structures can show the parent of a compound that is named as a salt. Where two headings read alike, the source gives them in different places.

Settings: USP classification, between 15° C. and 25° C.

Row | SMILES | Solubility in water | Solubility in ethanol (listed as metoprolol) | Solubility in ethanol (HCl) | Solubility in ethanol (listed as diltiazem, HCl) | Solubility in ethanol | Solubility in ethanol (listed as theophyllin) | Solubility in ethanol (listed as naloxone)
1 | Cn1c(=O)c2[nH]cnc2n(C)c1=O [Theophylline] | Slightly soluble (more than 100 to 1000) |  |  |  | Sparingly soluble (more than 30 to 100) | sparingly soluble | 
2 | NC(=O)N1c2ccccc2C=Cc2ccccc21 [Carbamazepine] | Practically insoluble (more than 10.000) |  |  |  | Soluble (more than 10 to 30) |  | 
3 | C=CCN1CC[C@]23c4c5ccc(O)c4O[C@H]2C(=O)CC[C@@]3(O)[C@H]1C5 [Naloxone] | Soluble (more than 10 to 30) |  |  |  | Slightly soluble (more than 100 to 1000) |  | slightly soluble

Further lines, with some results ahead:

Row | Solubility in water | Solubility in ethanol (listed as metoprolol) | Solubility in ethanol (HCl) | Solubility in ethanol (listed as diltiazem, HCl) | SMILES | Solubility in ethanol | Solubility in ethanol (listed as theophyllin) | Solubility in ethanol (listed as naloxone)
4 | Freely soluble (from 1 to 10) | sparingly soluble |  |  | COCCc1ccc(OCC(O)CNC(C)C)cc1 (centres unmarked) [Metoprolol succinate] | Sparingly soluble (more than 30 to 100) |  | 
5 | Freely soluble (from 1 to 10) |  | Sparingly soluble (more than 30 to 100) | sparingly soluble | COc1ccc([C@@H]2Sc3ccccc3N(CCN(C)C)C(=O)[C@@H]2OC(C)=O)cc1 [Diltiazem HCl] |  |  | 
